Several values for one entry are separate records, joined by “and”; a condition that tells them apart may be missing. Equal entries are not always repeated.
Legend:
Test in all cases: MTT cell death assay, chemotherapeutic with and without MADD siRNA knockdown
Format in all cases: cell-based
Details in all cases: siRNA 10 nM
[1] = tested on: OVCAR3 ovarian cancer cells
Method: (§1) Cells are cultured and maintained at 37° C. in a humidified atmosphere containing 5% CO2 as described above. On Day 0, Cells are seeded in […] tissue culture dishes (Corning; Cat Number: 353003) to attain 60-70% confluence. In parallel, cells are also seeded in one 96-well plate (Corning; Cat number: 353072) for analysis of survival before reseeding. After 12-18 hours (Day 1), cells are transfected with Scramble or MADD siRNA at 10 nM concentration. The sequences of siRNAs (double-stranded) used are:
(§2) On Day 4, when cells are properly adhered and retained their shape in 96-well plates, drugs are added. All drugs are diluted in complete media on the same day prior to the addition to the cells. In untreated cells, media is replaced with complete media. Two hundred μl volume of media (with or without drugs) is used for the drug treatment assay. Plates are incubated 24 hours, 48 hours and 72 hours at 37° C. in humidified CO2 incubator.
(§3) An MTT assay is performed to determine relative survival after drug treatment as described above. MTT (3-[4,5-Dimethylthiazol-2-yl]-2,5-diphenyltetrazolium bromide; Thiazolyl blue) is purchased from Sigma Aldrich (Cat number: M5655). MTT is dissolved in sterile DPBS at the concentration of 5 mg/ml and filtered through 0.45 μM syringe filter (Corning; Cat number: 431220). Ten μl of MTT solution is added per well of 96-well plate. Plates are incubated for 2 hours at 37° C. in the humidified CO2 incubator. After 2 hours, media is aspirated using vacuum inside the biosafety hood. Purple colored crystals formed in viable cells are dissolved by adding 100 μl of Dimethyl sulfoxide (Thermo Fisher Scientific; Cat number D128-500) Plates are kept on shaker for 10 minutes for compete dissolution of crystals and absorbance is recorded at 595 nm using Bio-Rad iMark microplate reader. Data is analyzed in MICROSOFT EXCEL® software. Relative survival is calculated with respect to absorbance of control (untreated cells) to determine the effect of transfection as well as combination treatment.
(§4) Each data set takes into account any spontaneous cell death which is observed upon transfection with Scramble siRNA; the amount of spontaneous cell death from Scramble siRNA transfection (baseline) is subtracted from the amount of cell death observed in each siRNA transfection reaction to yield a Net Percent (Net %) cell death after accounting for Scrambled siRNA-induced cell death.
as §1, with “(double stranded)” for “(double-stranded)”
as §3, with “D128-500).” for “D128-500)”, “Relative survival is calculated with respect to absorbance of control (untreated cells) to determine the effect of transfection as well as combination treatment.” left out

H522 lung cancer cells = tested on: H522 lung cancer cells
Method: as §1, §2, §3, §4
as §1, with “(double stranded)” for “(double-stranded)”
as §3, with “D128-500).” for “D128-500)”, “Relative survival is calculated with respect to absorbance of control (untreated cells) to determine the effect of transfection as well as combination treatment.” left out

[2] = tested on: 8505C thyroid cancer cells
Method: Cells are cultured and maintained at 37° C. in a humidified atmosphere containing 5% CO2 as described above. […] After 12-18 hours (Day 1), cells are transfected with Scramble or MADD siRNA at 10 nM concentration. The sequences of siRNAs (double stranded) used are:
as §2, with “24 h,” for “24 hours,”, “48 h” for “48 hours”
as §3, with “MTT is dissolved in sterile DPBS at the concentration of 5 mg/ml and filtered through 0.45 μM syringe filter (Corning; Cat number: 431220).” left out
as §4, §2

[3] = Sorafinib 5 μM, 48 hours post Sorafinib treatment
[4] = Sorafinib 1.56 μM, 48 hours post Sorafinib treatment
[5] = 8505C thyroid cancer cells, TRAIL 6.25 ng/ml, 48 hours post TRAIL treatment
[6] = 8505C, Cisplatin 2.5 μM, 48 hours post Cisplatin treatment
[7] = 8508C thyroid cancer cells, TRAIL 6.25 ng/ml, 48 hours post TRAIL treatment
[8] = Gemcitabine 0.0125 μM, 72 hours post Gemcitabine treatment
[9] = Gemcitabine 0.1 μM, 48 hours post Gemcitabine treatment
[10] = Gemcitabine 8.2 nM, 48 hours post Gemcitabine treatment
[11] = TRAIL 100 ng/ml, 48 hours post TRAIL treatment

Row | Molecule | Net % cell death after accounting for Scrambled siRNA [1, 3] | Observed % Cell death [1, 3] [%] | Net % cell death after accounting for Scrambled siRNA (H522 lung cancer cells; [4]) | Observed % Cell death (H522 lung cancer cells; [4]) [%] | Net % cell death after accounting for Scrambled siRNA [2, 5] | Net % cell death after accounting for Scrambled siRNA [2, 6] | Observed % Cell death [2, 6] [%] | Observed % Cell death [2, 7] [%] | Observed % Cell death [1, 8] [%] | Observed % Cell death [1, 9] [%] | Observed % Cell death (H522 lung cancer cells; [10]) [%] | Observed % Cell death (H522 lung cancer cells; [11]) [%] | Net % cell death after accounting for Scrambled siRNA [1, 8] | Net % cell death after accounting for Scrambled siRNA [1, 9] | Net % cell death after accounting for Scrambled siRNA (H522 lung cancer cells; [10]) | Net % cell death after accounting for Scrambled siRNA (H522 lung cancer cells; [11])
1 | CNC(=O)c1cc(Oc2ccc(NC(=O)Nc3ccc(Cl)c(C(F)(F)F)c3)cc2)ccn1 [Sorafinib] | 17% | 17 | 0% | 0 | – | – | – | – | – | – | – | – | – | – | – | –
2 | MADD siRNA: siRNA targeting exon 13L of the MADD splice variant of the IG20 gene; SEQ ID NO: 4, 5′-GAUUGUCAUAGAUUCGCCGTT-3′ (chemistry not given here) | – | 19 | – | 37 | 39% and 49 − 10 = 39% | 39% and 49 − 10 = 39% | 49 | 49 | 23 | 19 | 37 | 37 | – | – | – | –
3 | Scrambled siRNA: non-specific Scramble siRNA, negative control; SEQ ID NO: 5, 5′-UUGCUAAGCGUCGGUCAAUTT-3′ (chemistry not given here) | 17 − 17 = 0% | 17 | 30 − 30 = 0% | 30 | 10 − 10 = 0% | 10% | 10 | 10 | 26 | 17 | 30 | 30 | 26 − 26 = 0% | 17 − 17 = 0% | 30 − 30 = 0% | 30 − 30 = 0%
4 | TRAIL: cytotoxic protein which induces apoptosis in tumor cells, but not in normal cells (protein, UniProt P50591 1-281, looked up) Tumor necrosis factor ligand …: MAMMEVQGGPSLGQTCVLIVIFTVLLQSLCVAVTYVYFTNELKQMQDKYSKSGIACFLKEDDSYWDPNDEESMNSPCWQVKWQLRQLVRKMILRTSEETISTVQEKQQNISPLVRERGPQRVAAHITGTRGRSNTLSSPNSKNEKALGRKINSWESSRSGHSFLSNLHLRNGELVIHEKGFYYIYSQTYFRFQEEIKENTKNDKQMVQYIYKYTSYPDPILLMKSARNSCWSKDAEYGLYSIYQGGIFELKENDRIFVSVTNEHLIDMDHEASFFGAFLVG | – | – | – | – | 6.56% and 7% | – | – | 7 | – | – | – | 0 | – | – | – | 0%
